Like-named read-outs stand apart in the source and are kept apart here.
Molecular target: T1, NPC1 (Cricetulus griseus, UniProt Q9JLG3)
T1 construct: CHO-7 cells in the medium are deprived of cholesterol to induce the LDL receptors biosynthesis; endogenous in cells; host or cells: CHO-7 cells
T1 sequence (Q9JLG3 23-1277): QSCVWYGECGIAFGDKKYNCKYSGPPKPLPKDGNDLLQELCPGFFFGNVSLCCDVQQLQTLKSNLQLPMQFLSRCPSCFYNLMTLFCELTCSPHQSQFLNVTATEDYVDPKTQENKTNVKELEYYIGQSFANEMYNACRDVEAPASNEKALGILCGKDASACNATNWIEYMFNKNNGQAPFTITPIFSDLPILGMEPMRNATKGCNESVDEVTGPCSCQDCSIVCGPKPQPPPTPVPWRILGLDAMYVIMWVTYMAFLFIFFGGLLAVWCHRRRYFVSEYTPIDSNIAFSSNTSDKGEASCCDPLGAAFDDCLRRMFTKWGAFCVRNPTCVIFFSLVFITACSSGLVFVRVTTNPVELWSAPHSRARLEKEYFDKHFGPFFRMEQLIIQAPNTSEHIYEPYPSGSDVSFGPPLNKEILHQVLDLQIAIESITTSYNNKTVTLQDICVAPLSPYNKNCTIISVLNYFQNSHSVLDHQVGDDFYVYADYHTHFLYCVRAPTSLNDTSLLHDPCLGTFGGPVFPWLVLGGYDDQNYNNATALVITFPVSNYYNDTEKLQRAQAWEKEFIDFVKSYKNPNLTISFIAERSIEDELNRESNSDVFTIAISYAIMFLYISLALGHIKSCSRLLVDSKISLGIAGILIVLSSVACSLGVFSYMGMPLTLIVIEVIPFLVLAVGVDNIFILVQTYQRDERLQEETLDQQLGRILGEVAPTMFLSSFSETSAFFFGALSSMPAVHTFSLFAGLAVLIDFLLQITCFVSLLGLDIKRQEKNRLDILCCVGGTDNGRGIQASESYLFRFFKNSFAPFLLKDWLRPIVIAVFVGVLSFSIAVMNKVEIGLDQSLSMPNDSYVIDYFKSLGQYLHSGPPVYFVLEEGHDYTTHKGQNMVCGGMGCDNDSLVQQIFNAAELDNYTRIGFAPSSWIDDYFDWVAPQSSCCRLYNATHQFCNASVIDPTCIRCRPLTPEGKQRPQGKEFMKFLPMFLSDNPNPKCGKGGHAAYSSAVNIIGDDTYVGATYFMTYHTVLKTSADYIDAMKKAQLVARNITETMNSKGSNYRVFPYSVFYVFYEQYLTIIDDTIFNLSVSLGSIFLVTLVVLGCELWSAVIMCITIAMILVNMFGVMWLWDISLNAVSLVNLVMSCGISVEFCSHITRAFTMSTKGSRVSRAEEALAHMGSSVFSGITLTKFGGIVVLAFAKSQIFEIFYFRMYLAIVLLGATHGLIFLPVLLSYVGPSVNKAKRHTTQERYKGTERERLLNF
Experiment: Cholesterol re-esterification (ACAT) assay measuring NPC1-mediated export of cholesterol from lysosomes in CHO-7 cells
Type: cell-based
Details: for cholesteryl [14C] oleate formed, Repeat 1 / cholesteryl [14C] oleate formed, Repeat 2: Fig. 2 source data; for cholesteryl [14C] oleate formed, Repeat 3 / cholesteryl [14C] oleate formed, Repeat 4: Supplementary Fig. 3 source data
Text: Itraconazole has three chiral centers (Supplementary Fig. 2a). The pharmaceutical form contains four cis-stereoisomers in a 1:1:1:1 molar ratio (Supplementary Fig. 2a–d). To determine the activity of the cis-stereoisomers, the individual isomers were isolated and identified based on their optical rotation in chloroform following a previous report (Supplementary Fig. 2e)[26]. Then, they were separately tested in a cholesterol re-esterification assay used to measure NPC1-mediated export of cholesterol from lysosomes. Briefly, CHO-7 cells in the medium are deprived of cholesterol to induce the LDL receptors biosynthesis. The cells are then incubated with fetal calf serum (FCS) that contains LDL. The LDL-derived cholesterol will now be transported by functional NPC1 protein from the lysosome to the endoplasmic reticulum (ER). The acyl-CoA:cholesterol actyltransferase named ACAT can now re-esterify the cholesterol in the ER. Therefore, the cells were pulse-labeled with [^14C] oleate and we can measure the synthesis of cholesteroyl [^14C] oleate to evaluate the activity of NPC1 protein. Using this assay, we tested the ability of various itraconazole to inhibit NPC1 activity.
Fig. 2 ACAT activity of itraconazole and ketoconazole in CHO-7 cells. On day 0, CHO-7 cells were set up in medium A with 5% LPDS at 2.5 × 10^5 cells/well in 6-well dish. On day 2, cells were switched to medium A with 5% LPDS containing 50 µM sodium compactin and 50 µM sodium mevalonate. On day 3 the cells received fresh medium B containing compactin and mevalonate with various concentration compounds in the presence of 10% FCS containing lipoproteins. After incubation for 4 h at 37 °C, each cell monolayer was pulse-labeled for 2 h with 0.1 mM sodium [^14C] oleate (5792 dpm/nmol). The cells were then harvested for measurement of their content of cholesteryl [^14C] oleate and [^14C] triglycerides, as described in Methods. […] Itraconazole mixture, isomer A (Supplementary Fig. 2a), isomer B (Supplementary Fig. 2b) and isomer C (Supplementary Fig. 2c) were added at final concentrations of 0.3 μM. The isomer D (Supplementary Fig. 2d), I-Br and ketoconazole were added at final concentrations of 1 μM. The biological repeats are shown as individual values. Source data are provided as a Source Data file.
On day 0, cells were set up in medium A with 5% LPDS at 2.5 × 10^5 cells/well in six-well dish. On day 2, cells were switched to medium A with 5% LPDS containing 50 µM sodium compactin and 50 µM sodium mevalonate. On day 3 the cells received fresh medium B containing compactin and mevalonate with indicated concentration triazole compounds in the presence of 10% FCS containing lipoproteins. After incubation for 4 h at 37 °C, each cell monolayer was pulse-labeled for 2 h with 0.1 mM sodium [^14C] oleate (5792 dpm/nmol). The cells were then harvested for measurement of their content of cholesteryl [^14C] oleate and [^14C] triglycerides.
The rate of incorporation of [^14C] oleate into cholesteryl [^14C] oleate and [^14C] triglycerides by monolayers of NPC1^−/− cells and CHO-7 cells was measured as described previously. In brief, cells were switched to medium containing LPDS supplemented with compactin and mevolonate at 16 h before the experiments. On the day of the experiment, cells were incubated for 4 h with fresh medium containing FCS as a source of cholesterol-containing lipoproteins. Cells were then pulse –labeled for 2 h with 0.1 mM sodium [^14C] oleate. Cells were then washed, and the lipids were extracted in hexane:isopropanol (3:2, vol:vol), separated on a silica gel G thin-layer chromatogram (developed in heptane:ethylether:acetic acid, 90:30:1), and quantified by scintillation counting with the use of an internal standard for recovery.

SMILES	cholesteryl [14C] oleate formed, Repeat 1 (0.01 uM compound)	cholesteryl [14C] oleate formed, Repeat 2 (0.01 uM compound)	cholesteryl [14C] oleate formed, Repeat 3 (0.01 uM compound)	cholesteryl [14C] oleate formed, Repeat 4 (0.01 uM compound)	cholesteryl [14C] oleate formed, Repeat 1 (0.03 uM compound)	cholesteryl [14C] oleate formed, Repeat 2 (0.03 uM compound)	cholesteryl [14C] oleate formed, Repeat 3 (0.03 uM compound)	cholesteryl [14C] oleate formed, Repeat 4 (0.03 uM compound)	cholesteryl [14C] oleate formed, Repeat 1 (0.06 uM compound)	cholesteryl [14C] oleate formed, Repeat 2 (0.06 uM compound)	cholesteryl [14C] oleate formed, Repeat 3 (0.06 uM compound)	cholesteryl [14C] oleate formed, Repeat 4 (0.06 uM compound)	cholesteryl [14C] oleate formed, Repeat 1 (0.1 uM compound)	cholesteryl [14C] oleate formed, Repeat 2 (0.1 uM compound)	cholesteryl [14C] oleate formed, Repeat 3 (0.1 uM compound)	cholesteryl [14C] oleate formed, Repeat 4 (0.1 uM compound)	cholesteryl [14C] oleate formed, Repeat 1 (0.3 uM compound)	cholesteryl [14C] oleate formed, Repeat 2 (0.3 uM compound)	cholesteryl [14C] oleate formed, Repeat 3 (0.3 uM compound)	cholesteryl [14C] oleate formed, Repeat 4 (0.3 uM compound)	further results
CCC(C)n1ncn(-c2ccc(N3CCN(c4ccc(OCC5COC(Cn6cncn6)(c6ccc(Cl)cc6Cl)O5)cc4)CC3)cc2)c1=O (stereo not shown) [Itra-C]	2.751 nanomoles formed per hour per milligram cell protein	4.364 nanomoles formed per hour per milligram cell protein	5.964 nanomoles formed per hour per milligram cell protein	6.001 nanomoles formed per hour per milligram cell protein	3.794 nanomoles formed per hour per milligram cell protein	3.288 nanomoles formed per hour per milligram cell protein	5.048 nanomoles formed per hour per milligram cell protein	4.017 nanomoles formed per hour per milligram cell protein	2.064 nanomoles formed per hour per milligram cell protein	2.2038 nanomoles formed per hour per milligram cell protein	2.593 nanomoles formed per hour per milligram cell protein	3.086 nanomoles formed per hour per milligram cell protein	1.063 nanomoles formed per hour per milligram cell protein	0.9711 nanomoles formed per hour per milligram cell protein	0.7465 nanomoles formed per hour per milligram cell protein	0.811 nanomoles formed per hour per milligram cell protein	0.4254 nanomoles formed per hour per milligram cell protein	0.7413 nanomoles formed per hour per milligram cell protein	0.1456 nanomoles formed per hour per milligram cell protein	0.04925 nanomoles formed per hour per milligram cell protein	IC50 (IC50 (concentration at which each compound inhibited cholesterol esterification by 50%), 10% FCS, 4 h then 2 h [14C] oleate pulse): 35 nM
CCC(C)n1ncn(-c2ccc(N3CCN(c4ccc(OCC5COC(Cn6cncn6)(c6ccc(Cl)cc6Cl)O5)cc4)CC3)cc2)c1=O (stereo not shown) [Itra-D]	5.124 nanomoles formed per hour per milligram cell protein	4.829 nanomoles formed per hour per milligram cell protein	5.364 nanomoles formed per hour per milligram cell protein	5.55 nanomoles formed per hour per milligram cell protein	5.201 nanomoles formed per hour per milligram cell protein	5.414 nanomoles formed per hour per milligram cell protein	4.815 nanomoles formed per hour per milligram cell protein	5.633 nanomoles formed per hour per milligram cell protein	4.957 nanomoles formed per hour per milligram cell protein	4.372 nanomoles formed per hour per milligram cell protein	4.6935 nanomoles formed per hour per milligram cell protein	4.899 nanomoles formed per hour per milligram cell protein	4.223 nanomoles formed per hour per milligram cell protein	3.931 nanomoles formed per hour per milligram cell protein	3.618 nanomoles formed per hour per milligram cell protein	3.755 nanomoles formed per hour per milligram cell protein	1.696 nanomoles formed per hour per milligram cell protein	0.8471 nanomoles formed per hour per milligram cell protein	0.9245 nanomoles formed per hour per milligram cell protein	0.77 nanomoles formed per hour per milligram cell protein	cholesteryl [14C] oleate formed, Repeat 1 (1 uM compound): 0.3184 nanomoles formed per hour per milligram cell protein; cholesteryl [14C] oleate formed, Repeat 2 (1 uM compound): 0.2982 nanomoles formed per hour per milligram cell protein; cholesteryl [14C] oleate formed, Repeat 3 (1 uM compound): 0.3042 nanomoles formed per hour per milligram cell protein; cholesteryl [14C] oleate formed, Repeat 4 (1 uM compound): 0.4741 nanomoles formed per hour per milligram cell protein; IC50 (read-out: IC50 (concentration at which each compound inhibited cholesterol esterification by 50%), 10% FCS, 4 h then 2 h [14C] oleate pulse): 175 nM

From article PMC6952396, “Structural basis for itraconazole-mediated NPC1 inhibition” (Nature Communications, 2020)
